# According to article PMC4423596 (Angewandte Chemie (International ed. in English), 2015):
# Columns and labels:
# [1] = molecular target: T1, CBP/p300 KIX domain (Mus musculus, UniProt P45481); assay: PrOF NMR chemical shift perturbation at fixed ligand concentration; format: binding; settings: 3FY-labeled KIX; 833 µM to 5 mM small molecule
# [2] = molecular target: T1, CBP/p300 KIX domain; assay: PrOF NMR ligand titration; format: binding
# [3] = tested on: MLL-KIX PPI site; settings: cited from earlier work
# T1 sequence (P45481 586-665): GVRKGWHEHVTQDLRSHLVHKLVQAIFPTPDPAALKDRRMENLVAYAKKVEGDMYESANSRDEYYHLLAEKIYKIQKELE
SMILES,"chemical shift perturbation (PrOF NMR), in words [1]",IC50 [3] [µM],also measured
CC(C)Cc1ccc(C(C)C(=O)O)cc1 (stereo not drawn) [ibuprofen],significant chemical shift perturbations,–,–
"CC(C(=O)O)c1ccc(-c2ccccc2)c(F)c1 (stereo not drawn) [Flurbiprofen, flurbiprofen]",–,–,Kd [2]: 5900 ± 600 µM; Ligand Efficiency ([2]; calculated from the PrOF Kd): 0.17 kcal mol^−1 NHA^−1
CCCCCc1c2c(cc(O)c1C(=O)O)OC(=O)c1c(cc(OC)cc1C(=O)CCCC)O2 [lobaric acid],–,17,–
"O=C(Nc1ccc(Cl)cc1)c1cc2ccccc2cc1OP(=O)(O)O [KG-501, Naphthol AS-E phosphate]",identified a binding interaction,–,–
CCCc1cc(OC)cc(O)c1C(=O)Oc1c(OC)cc(CCC)c(C(=O)O)c1O [sekikaic acid],–,34,–
